“Also recorded” adds a separate entry of the source.
Columns and labels:
NADPH oxidase (NOX) = experiment: NADPH oxidase activity after stimulation with Angiotensin II; assay type: cell-based, mice; conditions: chemiluminescence per minute, mixtures ratio 1:1
Experimental: Moreover, the analysis of NADPH oxidase (NOX) activity after stimulation with Angiotensin II, a gold-standard inducer of NOX activation was performed.
(§1) Vessels were pre-treated with single anthocyanins (50 μg/mL) for 1 hours and then stimulated with Angiotensin II for 15 minutes prior to the acquisition. (A) Measurement of ROS production by DHR123 in vessels treated with single anthocyanins and combination of anthocyanins mixed with a ratio 1:1. (B) NADPH oxidase activity in mesenteric arteries exposed to HB or single anthocyanins or combination of anthocyanins mixed with a ratio 1:1. Data are expressed as increase of chemiluminescence per minute.

mice mesenteric arteries [1] = experiment: Angiotensin II-induced ROS formation (DHE, DHR123); assay type: cell-based; conditions: 50 μg/mL for 1 hour, then Angiotensin II 15 minutes; DHE and DHR123; mixtures ratio 1:1
Experimental: Dihydroethidium (DHE, Life Technologies) was used to evaluate production of reactive oxygen species (ROS) in mouse mesenteric arteries, as previously described. Briefly, vessels were incubated with 5 μM of DHE for 20 min and subsequently observed under a fluorescence microscope (Zeiss). Images were acquired by a digital camera system (Olympus Soft Imaging Solutions). […] After treatment, vessels were incubated with Krebs solution containing 5 μM DHR123 for 30 min at 37° C., and then washed two times with PBS prior to fluorescence measurement using a fluorescence microplate reader (TECAN infinite 200 Pro).
To investigate the capability of Healthberry 865® and the single anthocyanins contained on the modulation of oxidative stress, several methodological approaches were performed measuring both, total anti reactive oxygen species (ROS) capacity and their specific action on the modulation of the main machinery of ROS production, the activity of NADPH oxidase enzyme. […] The antioxidant vascular actions of single anthocyanins contained in Healthberry 865®: Delphinidin-3-rutinoside (D3-rut), Cyanidin-3-rutinoside (C3-rut), Delphinidin glucoside (DP3-glu), Cyanidin-3-glucoside (C3-glu), Petunidin-3-glucoside (PT3-glu), Delphinidin galactoside (DP3-gal), Peonidin-3-galactoside (PEO3-gal), Delphinidin-3-arabinoside (DP3-ara), Malvidin-3-galactoside (MAL3-gal), Malvidin-3-glucoside (MAL3-glu), Cyanidin-3-galactoside (C3-gal) and Cyanidin-3-arabinopyranoside (C3-arapy) were analyzed.
as §1

mice mesenteric arteries [2] = experiment: Vascular reactivity: vasorelaxation of phenylephrine-precontracted mice mesenteric arteries; assay type: cell-based; conditions: increasing doses (5-300 μg/mL), phenylephrine-precontracted vessels
Experimental: Second-order branches of the mesenteric arterial tree were removed from mice to perform vascular studies. […] First, an analysis of vascular reactivity curves was performed.

Compound	NADPH oxidase (NOX) activity (NADPH oxidase (NOX))	Angiotensin II-induced ROS formation (mice mesenteric arteries [1])	vasorelaxant action (mice mesenteric arteries [2])
OC[C@H]1O[C@@H](Oc2cc3c(O)cc(O)cc3[o+]c2-c2ccc(O)c(O)c2)[C@H](O)[C@@H](O)[C@@H]1O [C3-glu, Cyanidin-3-glucoside]	able to reduce NOX activity; also recorded: the most powerful anthocyanins closer to the potent effect of Healthberry 865®	able to reproduce the antioxidant action of Healthberry 865®	
C[C@@H]1O[C@@H](OC[C@H]2O[C@@H](Oc3cc4c(O)cc(O)cc4[o+]c3-c3ccc(O)c(O)c3)[C@H](O)[C@@H](O)[C@@H]2O)[C@H](O)[C@H](O)[C@H]1O [C3-rut, Cyanidin-3-rutinoside]	able to reduce NOX activity	able to reproduce the antioxidant action of Healthberry 865®	
OC[C@H]1O[C@@H](Oc2cc3c(O)cc(O)cc3[o+]c2-c2cc(O)c(O)c(O)c2)[C@H](O)[C@@H](O)[C@@H]1O [DP3-glu, Delphinidin-3-glucoside]	able to reduce NOX activity	able to reproduce the antioxidant action of Healthberry 865®	
NCCCC[C@H](N)C(=O)O [L-Lysine]			did not evoke any vasorelaxant effect
COc1cc(-c2[o+]c3cc(O)cc(O)c3cc2O[C@@H]2O[C@H](CO)[C@H](O)[C@H](O)[C@H]2O)cc(OC)c1O [MAL3-gal, Malvidin-3-galactoside]	able to reduce NOX activity	able to reproduce the antioxidant action of Healthberry 865®	
COc1cc(-c2[o+]c3cc(O)cc(O)c3cc2O[C@@H]2O[C@H](CO)[C@@H](O)[C@H](O)[C@H]2O)cc(OC)c1O [MAL3-glu, Malvidin-3-glucoside]	able to reduce NOX activity; also recorded: the most powerful anthocyanins closer to the potent effect of Healthberry 865®	able to reproduce the antioxidant action of Healthberry 865®	
Peonidin-3-galactoside [PEO3-gal]	able to reduce NOX activity	able to reproduce the antioxidant action of Healthberry 865®	
